The text below walks through data of US9334279B2, “Hepatitis C virus inhibitors” (BRISTOL-MYERS SQUIBB COMPANY, priority 2012, dated 2016).

Like-named read-outs stand apart in the source and are kept apart here.

One assay relates to HCV GT1a(H77) replicon. As to the kind of experiment: HCV replicon luciferase reporter assay, genotype 1a. As to conditions: Hepatitis C virus, 72 h, HUH-7 cells, Renilla luciferase, 3 days incubation. Format: cell-based, HCV genotype 1a. From the text:
A stable HCV GT1a(H77) replicon luciferase reporter cell line (Yanagi M, Purcell RH, Emerson S U, et al. Transcripts from a single full-length cDNA clone of hepatitis C virus are infectious when directly transfected into the liver of a chimpanzee. Proc Natl Acad Sci USA 1997; 94(16):8738-8743) was generated as described previously for the genotype 1b(Con1) replicon luciferase cell line. The replicon construct was modified by introducing mutations into the genes encoding the NS3 helicase domain (proline replaced by leucine at position 1496) and NS5A (serine to isoleucine at position 2204) to improve replication in cell culture.
(§1) HCV replicon luciferase assays were developed to monitor the inhibitory effects of compounds described in the disclosure on HCV genotypes 1a and 1b viral replication. HUH-7 cells, constitutively expressing the HCV replicon, were grown in Dulbecco's Modified Eagle Media (DMEM) (Gibco-BRL) containing 10% Fetal calf serum (FCS) (Sigma) and 1 mg/mL G418 (Gibco-BRL). Compounds were serially diluted 3 folds in DMSO for a twenty-point titration and subsequently transferred to sterile 384-well tissue-culture treated plates (Corning cat #3571). The plates were then seeded with 50 μL of cells at a density of 3.0×10^3 cells/well in DMEM containing 4% FCS (final DMSO concentration at 0.5%). After 3 days incubation at 37° C., cells were analyzed for Renilla Luciferase activity using the EnduRen as substrate (Promega cat #E6485). The EnduRen substrate was diluted in DMEM and then added to the plates to a final concentration of 7.5 μM. The plates were incubated for 2 hrs at 37° C. and then read immediately for 30 seconds with Viewlux Imager (PerkinElmer) using a luminescence program. To assess cytotoxicity of compounds, CC50 values were generated by multiplexing the EnduRen-containing plates with Cell Titer-Blue (Promega, cat #G8082). Cell-Titer Blue (3 μL) was added to each well and incubated for 8 hrs at 37° C. The fluorescence signal from each well was read, with an excitation wavelength at 525/10 nm and an emission wavelength of 598/10 nm, using the Viewlux Imager.
(§2) The EC50 values for compounds were calculated by using a four-parameter logistic equation: y=A+[…])/(1+((C/x)^D))), where A and B denotes minimal and maximal % inhibition, respectively, C is the EC50, D is the hill slope and x represents compound concentration.

A further assay deals with HCV GT1b(Con1) replicon. As to the kind of experiment: HCV replicon luciferase reporter assay, genotype 1b. Format: cell-based, HCV genotype 1b. Conditions: Hepatitis C virus, 72 h, HUH-7 cells, Renilla luciferase, 3 days incubation.
From the text: An HCV GT1b(Con1) replicon cell system was established as described by Lohmann V, Korner F, Koch J, Herian U, Theilmann L, Bartenschlager R., Science 285(5424):110-3 (1999) and modified to introduce a luciferase reporter (Krieger N, Lohmann V, and Bartenschlager R, J. Virol. 75(10):4614-4624 (2001)). cDNA encoding a humanized form of the Renilla luciferase gene, and a linker sequence fused directly to the 3′-end of the luciferase gene were introduced into the replicon construct using an Asc1 restriction site located in core, directly upstream of the neomycin marker gene. The adaptive mutation at position 1179 (serine to isoleucine) was also introduced (Blight K J, Kolykhalov, A A, Rice, C M, Science 290(5498):1972-1974). A stable cell line constitutively expressing this HCV replicon construct was generated by first linearizing plasmid DNAs with ScaI. RNA transcripts were synthesized in vitro using the T7 MegaScript transcription kit (Ambion, Austin, Tex.) according to manufacturer's directions. In vitro transcripts of the cDNA were transfected into the human hepatoma cell line, HUH-7. […] Resulting cell lines were characterized for positive and negative strand RNA production and protein production over time.
as §1, §2

With `COc1cccc(-c2cc(O[C@@H]3C[C@H]4C(=O)N[C@]5(C(=O)NS(=O)(=O)C6(C)CC6)C[C@H]5/C=C\CCC(C)C[C@@H](C)[C@H](NC(=O)OC(C)(C)C(F)(F)F)C(=O)N4C3)cc(-c3ccc(OC(C)C)cc3)n2)n1` (stereo in doubt) [Compound 1012, 1,1,1-trifluoro-2-methylpropan-2-yl ((2R,6S,7R,9R,13aS,14aR,16aS,Z)-2-((6-(4-isopropoxyphenyl)-6′-methoxy-[2,2′-bipyridin]-4-yl)oxy)-7,9-dimethyl-14a-(((1-methylcyclopropyl)sulfonyl)carbamoyl)-5,16-dioxo-1,2,3,5,6,7,8,9,10,11,13a,14,14a,15,16,16a-hexadecahydrocyclopropa[e]pyrrolo[1,2-a][1,4]diazacyclopentadecin-6-yl)carbamate], the EC50 (in general, the midpoint of the concentration-response curve) lay within 5.01 to 35 nM with HCV GT1a(H77) replicon (read-out: LE_1a (EC50, range)) and 5.01 to 35 nM with HCV GT1b(Con1) replicon (read-out: LE_1b (EC50, range)).
As to `CC(C)Oc1ccc(-c2cc(O[C@@H]3C[C@H]4C(=O)N[C@]5(C(=O)NS(=O)(=O)C6(C)CC6)C[C@H]5/C=C\CC[C@@H](C)C[C@@H](C)[C@H](NC(=O)OC(C)(C)C(F)(F)F)C(=O)N4C3)cc(-c3cnccn3)n2)cc1` [Compound 1001, 1,1,1-trifluoro-2-methylpropan-2-yl ((2R,6S,7R,9R,13aS,14aR,16aS,Z)-2-((2-(4-isopropoxyphenyl)-6-(pyrazin-2-yl)pyridin-4-yl)oxy)-7,9-dimethyl-14a-(((1-methylcyclopropyl)sulfonyl)carbamoyl)-5,16-dioxo-1,2,3,5,6,7,8,9,10,11,13a,14,14a,15,16,16a-hexadecahydrocyclopropa[e]pyrrolo[1,2-a][1,4]diazacyclopentadecin-6-yl)carbamate], the EC50 with HCV GT1a(H77) replicon (read-out: LE_1a (EC50, range)) lay in the range of 1.01 to 5 nM; in the assay on HCV GT1b(Con1) replicon (read-out: LE_1b (EC50, range)) it was 0.51 to 1 nM.
Take `CC(C)Oc1ccc(-c2cc(O[C@@H]3C[C@H]4C(=O)N[C@]5(C(=O)NS(=O)(=O)C6(C)CC6)C[C@H]5/C=C\CC[C@H](C)C[C@@H](C)[C@H](NC(=O)OC(C)(C)C(F)(F)F)C(=O)N4C3)cc(-c3cnccn3)n2)cc1` [Compound 1002, 1,1,1-trifluoro-2-methylpropan-2-yl ((2R,6S,7R,9S,13aS,14aR,16aS,Z)-2-((2-(4-isopropoxyphenyl)-6-(pyrazin-2-yl)pyridin-4-yl)oxy)-7,9-dimethyl-14a-(((1-methylcyclopropyl)sulfonyl)carbamoyl)-5,16-dioxo-1,2,3,5,6,7,8,9,10,11,13a,14,14a,15,16,16a-hexadecahydrocyclopropa[e]pyrrolo[1,2-a][1,4]diazacyclopentadecin-6-yl)carbamate]: the EC50 in the assay with HCV GT1a(H77) replicon (read-out: LE_1a (EC50)) was 59 nM; in the assay with HCV GT1a(H77) replicon (read-out: LE_1a (EC50, range)) it was 35 to 359 nM; in the assay with HCV GT1b(Con1) replicon (read-out: LE_1b (EC50)), 11.6 nM; in the assay on HCV GT1b(Con1) replicon (read-out: LE_1b (EC50, range)) it was 5.01 to 35 nM.
For `CC(C)Oc1ccc(-c2cc(O[C@@H]3C[C@H]4C(=O)N[C@]5(C(=O)NS(=O)(=O)C6(C)CC6)C[C@H]5/C=C\CC[C@@H](C)C[C@@H](C)[C@H](NC(=O)OC(C)(C)C(F)(F)F)C(=O)N4C3)cc(-c3cncs3)n2)cc1` [Compound 1003, 1,1,1-trifluoro-2-methylpropan-2-yl ((2R,6S,7R,9R,13aS,14aR,16aS,Z)-2-((2-(4-isopropoxyphenyl)-6-(thiazol-5-yl)pyridin-4-yl)oxy)-7,9-dimethyl-14a-(((1-methylcyclopropyl)sulfonyl)carbamoyl)-5,16-dioxo-1,2,3,5,6,7,8,9,10,11,13a,14,14a,15,16,16a-hexadecahydrocyclopropa[e]pyrrolo[1,2-a][1,4]diazacyclopentadecin-6-yl)carbamate], the EC50 in the assay on HCV GT1a(H77) replicon (read-out: LE_1a (EC50, range)) was 1.01 to 5 nM; in the assay with HCV GT1b(Con1) replicon (read-out: LE_1b (EC50, range)) it was 1.01 to 5 nM.
Take `C[C@@H]1CC/C=C\[C@@H]2C[C@@]2(C(=O)NS(=O)(=O)C2(C)CC2)NC(=O)[C@@H]2C[C@@H](Oc3ncccc3C(F)(F)F)CN2C(=O)[C@@H](NC(=O)OC(C)(C)C)[C@H](C)C1` [Compound 1065, tert-butyl ((2R,6S,7R,9R,13aS,14aR,16aS,Z)-7,9-dimethyl-14a-(((1-methylcyclopropyl)sulfonyl)carbamoyl)-5,16-dioxo-2-((3-(trifluoromethyl)pyridin-2-yl)oxy)-1,2,3,5,6,7,8,9,10,11,13a,14,14a,15,16,16a-hexadecahydrocyclopropa[e]pyrrolo[1,2-a][1,4]diazacyclopentadecin-6-yl)carbamate]: the 50% effective concentration (EC50) with HCV GT1b(Con1) replicon (read-out: LE_1b (EC50, range)) fell in the range of 1.01 to 5 nM.
Regarding `C[C@@H]1CC/C=C\[C@@H]2C[C@@]2(C(=O)NS(=O)(=O)C2(C)CC2)NC(=O)[C@@H]2C[C@@H](Oc3ncccc3C(F)(F)F)CN2C(=O)[C@@H](NC(=O)OC(C)(C)C(F)(F)F)[C@H](C)C1` [Compound 1066, 1,1,1-trifluoro-2-methylpropan-2-yl ((2R,6S,7R,9R,13aS,14aR,16aS,Z)-7,9-dimethyl-14a-(((1-methylcyclopropyl)sulfonyl)carbamoyl)-5,16-dioxo-2-((3-(trifluoromethyl)pyridin-2-yl)oxy)-1,2,3,5,6,7,8,9,10,11,13a,14,14a,15,16,16a-hexadecahydrocyclopropa[e]pyrrolo[1,2-a][1,4]diazacyclopentadecin-6-yl)carbamate], the 50% effective concentration (EC50) with HCV GT1b(Con1) replicon (read-out: LE_1b (EC50, range)) was in the range of 0.51 to 1 nM.
As to `C[C@@H]1CC/C=C\[C@@H]2C[C@@]2(C(=O)NS(=O)(=O)C2(C)CC2)NC(=O)[C@@H]2C[C@@H](Oc3nccc(Cl)c3C(F)(F)F)CN2C(=O)[C@@H](NC(=O)OC(C)(C)C(F)(F)F)[C@H](C)C1` [Compound 1067, 1,1,1-trifluoro-2-methylpropan-2-yl ((2R,6S,7R,9R,13aS,14aR,16aS,Z)-2-((4-chloro-3-(trifluoromethyl)pyridin-2-yl)oxy)-7,9-dimethyl-14a-(((1-methylcyclopropyl)sulfonyl)carbamoyl)-5,16-dioxo-1,2,3,5,6,7,8,9,10,11,13a,14,14a,15,16,16a-hexadecahydrocyclopropa[e]pyrrolo[1,2-a][1,4]diazacyclopentadecin-6-yl)carbamate], the EC50 in the assay with HCV GT1b(Con1) replicon (read-out: LE_1b (EC50, range)) fell in the range of 0.1 to 0.5 nM.
As to `COc1cccc(O[C@@H]2C[C@H]3C(=O)N[C@]4(C(=O)NS(=O)(=O)C5(C)CC5)C[C@H]4/C=C\CC[C@@H](C)C[C@@H](C)[C@H](NC(=O)OC(C)(C)C(F)(F)F)C(=O)N3C2)n1` [Compound 1068, 1,1,1-trifluoro-2-methylpropan-2-yl ((2R,6S,7R,9R,13aS,14aR,16aS,Z)-2-((6-methoxypyridin-2-yl)oxy)-7,9-dimethyl-14a-(((1-methylcyclopropyl)sulfonyl)carbamoyl)-5,16-dioxo-1,2,3,5,6,7,8,9,10,11,13a,14,14a,15,16,16a-hexadecahydrocyclopropa[e]pyrrolo[1,2-a][1,4]diazacyclopentadecin-6-yl)carbamate], the EC50 in the assay on HCV GT1b(Con1) replicon (read-out: LE_1b (EC50, range)) fell in the range of 1.01 to 5 nM.
Turning to `C[C@@H]1CC/C=C\[C@@H]2C[C@@]2(C(=O)NS(=O)(=O)C2(C)CC2)NC(=O)[C@@H]2C[C@@H](Oc3ncccc3Cl)CN2C(=O)[C@@H](NC(=O)OC(C)(C)C(F)(F)F)[C@H](C)C1` [Compound 1069, 1,1,1-trifluoro-2-methylpropan-2-yl ((2R,6S,7R,9R,13aS,14aR,16aS,Z)-2-((3-chloropyridin-2-yl)oxy)-7,9-dimethyl-14a-(((1-methylcyclopropyl)sulfonyl)carbamoyl)-5,16-dioxo-1,2,3,5,6,7,8,9,10,11,13a,14,14a,15,16,16a-hexadecahydrocyclopropa[e]pyrrolo[1,2-a][1,4]diazacyclopentadecin-6-yl)carbamate], the EC50 in the assay on HCV GT1b(Con1) replicon (read-out: LE_1b (EC50, range)) fell in the range of 0.1 to 0.5 nM.
